The subject of one data set is STAT3. The note with it: 2 μM in dimethyl sulfoxide; reported in ref [40]; cited from earlier work.
In data set [1] the test system is Tnfsf10 expression in astrocytes. Description: Tnfsf10 mRNA (qPCR) in stimulated primary mouse astrocytes. The class given is cell-based. The protocol:
Isolation, culture, and stimulation of primary mouse astrocytes. Primary murine astrocytes were isolated from neonatal brains as previously described. Briefly, wild-type mouse pups aged 1-3 days were cryoanesthetized and decapitated. Whole brains were extracted, and 2-3 brains pooled per culture. After centrifugation for 5 min at 500×g, tissues were resuspended in 5 mL pre-warmed 0.25% Trypsin-EDTA (Thermo Fisher Scientific, 25200-072) and incubated at 37° C. for 10 min, followed by addition of culture medium to stop the dissociation reaction, and mechanical disaggregation by strong pipetting. The suspension was then filtered through a 70 μm nylon strainer and centrifuged 5 min at 500×g. Finally, the suspension was seeded onto T75 flasks (Falcon, 353136) that were coated at room temperature for 10 min with poly-L-lysine (Sigma-Aldrich, P4707). Mixed glial cultures were grown for at least 10 days prior to enrichment of astrocytes per the following method. […]
For quantitative analysis of gene transcription from cultured cells cellular RNA was extracted by use of RNeasy Kit (Qiagen, 74004). […] Quantitative measurement of gene expression was performed by qPCR using Taqman Fast Universal PCR Master Mix (Life Technologies, 4367846), MicroAmp Optical 384 well plates (Thermo Fisher Scientific, 43-098-49) and a ViiA 7 Real-Time PCR System (Applied Biosciences). […]

The values that follow come from patent US20260242824A1, “ONCOLYTIC VIRUSES TO TREAT BRAIN CANCER” (priority 2023, published 2026).

For the molecule `O=C(Nc1ccc([N+](=O)[O-])cc1Cl)c1cc(Cl)ccc1O` [BAY2353, Niclosamide], the “effectiveness and cytotoxicity at the concentration used” value with STAT3 was “effective but not cytotoxic”. In data set [1] (GL261 TCM-stimulated astrocytes, inhibitor 2 μM, vs vehicle), the “TCM-induced expression of Tnfsf10 transcripts upon STAT inhibition” value is listed as “fully abrogated”.

B1: Recombinant murine IL-11: recombinant murine IL-11 used to stimulate astrocytes at 50 ng/ml (protein, UniProt P47873 22-199, looked up)
Interleukin-11: PGPPAGSPRVSSDPRADLDSAVLLTRSLLADTRQLAAQMRDKFPADGDHSLDSLPTLAMSAGTLGSLQLPGVLTRLRVDLMSYLRHVQWLRRAGGPSLKTLEPELGALQARLERLLRRLQLLMSRLALPQAAPDQPVIPLGPPASAWGSIRAAHAILGGLHLTLDWAVRGLLLLKTRL
On to B1, for which the “Tnfsf10 expression upon recombinant murine IL-11 alone” value in data set [1] (astrocytes, 50 ng/ml, levels comparable to GL261 TCM, vs control medium) was “sufficient to induce Tnfsf10 expression”.
